Measurements: US9435813B2, “Biomarkers of hemorrhagic shock” (The General Hospital Corporation, priority 2010, dated 2016)
Entries after “also recorded” stand apart in the source; their conditions may differ.

How the values were obtained:
[1] = tested on: hemorrhagic shock; conditions: rats, literature (Shults et al. 2008; Li et al. 2008; WO 2007117272); cited from earlier work
[2] = tested on: hemorrhagic shock; assay: Survival in lethal model of hemorrhagic shock; assay type: in vivo; conditions: rat, HS 60% blood loss, VPA 300 mg/kg; untreated animals did not survive
Description: (§1) An animal model of HS was used. Male Wistar-Kyoto rats (254.12±2.71 grams, Harlan, Indianapolis, Ind.) were used in the lethal model of hemorrhagic shock (Shults et al., J Trauma 2008; 64(3):629-638). Each animal's estimated blood volume was calculated using the formula: [estimated blood volume (mL)=weight (g)×0.06 (mL/g)+0.77]. About 1.3 mL of blood was manually drawn at the beginning and end of hemorrhage for analysis (included in the total hemorrhage calculation). The animals were hemorrhaged (40% of their calculated total blood volume) via a femoral arterial catheter over 10 minutes, followed by a 20% blood volume venous bleed over the next 50 minutes. Bleeding was performed using Kent Scientific adjustable pumps (Kent Scientific Corporation, N.J.). VPA (300 mg/kg) was administered via a femoral vein catheter after completion of hemorrhage. Blood pressure was monitored continuously during the experiment. The mean arterial pressure (MAP) in animals that were subjected to hemorrhage dropped sharply after bleeding to approximately 20 mm Hg. […]
Male Wistar-Kyoto rats underwent HS (60% blood loss) followed by treatment with or without VPA (300 mg/kg). Serum samples were obtained at baseline (BL), end of hemorrhage (EH), and after VPA treatment (VPA), and subjected to iTRAQ and analyzed by liquid chromatography-tandem mass spectrometry (LC-MS/MS). […]

[3] = tested on: claudin-3 mRNA; assay: RT-PCR of intestinal claudin-3 mRNA after hemorrhagic shock; assay type: in vivo; conditions: rat intestine, 1, 6 and 24 hours
Description: To assess whether gene expression of claudin-3 responds to HS and VPA treatment, the mRNA expression of rat intestines among the groups of sham, HS and VPA treatment was compared at 1, 6 and 24 hours using RT-PCR methods.

[4] = tested on: CINC-1; assay: Serum CINC-1 ELISA, sub-lethal hemorrhagic shock; assay type: in vivo; conditions: rat, 40% blood volume hemorrhage, VPA 300 mg/kg IV vs vehicle, 4 hours, p<0.05
Description: (§2) Anesthetized Wistar-Kyoto rats (250-300 g) underwent 40% blood volume hemorrhage over 10 minutes followed by 30 minutes of un-resuscitated shock and were treated with 1) VPA 300 mg/kg or 2) vehicle control. Blood samples were obtained at baseline, following shock, and prior to sacrifice (1 hour, 4 hours, and 20 hours; n=3-4/time point/group). Serum samples were screened for possible biomarkers using a multiplex electrochemiluminescence detection assay, and results were confirmed using ELISA. Additionally, lung tissue lysate was examined for chemokine and myeloperoxidase (MPO) levels as markers for neutrophil infiltration and ALI. Additionally, lung CINC-1 (a chemokine belonging to the IL-8 family that promotes neutrophil chemotaxis) mRNA levels were measured by real-time PCR.
(§3) Animals were hemorrhaged 40% of their total blood volume to induce sub-lethal HS, and were sacrificed at 1, 4, and 20 hours following hemorrhage and treatment. This degree of blood loss was selected to allow 100% of animals in all groups to survive until the designated time of sacrifice. Selected laboratory values were measured, and were indicative of moderate HS (mean lactate 0.6 mmol/L at baseline, 4.3 mmol/L after hemorrhage; mean baseline hemoglobin 12.0 g/dL at baseline, 9.6 g/dL after hemorrhage).
Conventional ELISA was used to confirm the data obtained using the multiplex electrochemiluminescence assay.

[5] = tested on: claudin-3; assay: Western blot of serum claudin-3 after hemorrhagic shock; assay type: in vivo; conditions: rat serum, 1 hour following VPA treatment; two bands seen in HS 1 hour group
Description: An animal model of HS was used. Male Wistar-Kyoto rats (254.12±2.71 grams, Harlan, Indianapolis, Ind.) were used in the lethal model of hemorrhagic shock (Shults et al., J Trauma 2008; 64(3):629-638). Each animal's estimated blood volume was calculated using the formula: [estimated blood volume (mL)=weight (g)×0.06 (mL/g)+0.77]. About 1.3 mL of blood was manually drawn at the beginning and end of hemorrhage for analysis (included in the total hemorrhage calculation). The animals were hemorrhaged (40% of their calculated total blood volume) via a femoral arterial catheter over 10 minutes, followed by a 20% blood volume venous bleed over the next 50 minutes. Bleeding was performed using Kent Scientific adjustable pumps (Kent Scientific Corporation, N.J.). VPA (300 mg/kg) was administered via a femoral vein catheter after completion of hemorrhage. Blood pressure was monitored continuously during the experiment. […]
To assess whether claudin-3 is a potential biomarker, independent serum samples were taken of sham (no hemorrhage and no treatment), HS 1 hour (1 hour following hemorrhagic shock), and VPA 1 hour (1 hour following VPA treatment) from individual rats and the level of the candidate biomarker was determined by Western blot with anti-claudin-3 antibody. […]

[6] = tested on: CINC-1 mRNA; assay: Lung CINC-1 mRNA by real-time PCR, sub-lethal hemorrhagic shock; assay type: in vivo; conditions: rat, 40% blood volume hemorrhage, VPA 300 mg/kg IV vs vehicle, 1, 4 and 20 hours
Description: as §2
(§4) Animals were hemorrhaged 40% of their total blood volume to induce sub-lethal HS, and were sacrificed at 1, 4, and 20 hours following hemorrhage and treatment. […] Selected laboratory values were measured, and were indicative of moderate HS (mean lactate 0.6 mmol/L at baseline, 4.3 mmol/L after hemorrhage; mean baseline hemoglobin 12.0 g/dL at baseline, 9.6 g/dL after hemorrhage).
To rule out possibility that an increase of CINC-1 protein in lung results from induction of the gene expression, lung tissue was assessed for CINC-1 mRNA levels (n=3-4/time point/group). […]

[7] = tested on: myeloperoxidase (MPO); assay: Lung tissue myeloperoxidase (MPO) level, sub-lethal hemorrhagic shock; assay type: in vivo; conditions: rat, 40% blood volume hemorrhage, VPA 300 mg/kg IV vs vehicle, 20 hour time point, p<0.05
Description: as §2, §4
Myeloperoxidase (MPO) levels were measured in lung whole tissue extract as a marker for neutrophil infiltration (n=3-4/time point/group).

[8] = tested on: CINC-1; assay: Serum CINC-1, multiplex electrochemiluminescence assay, sub-lethal hemorrhagic shock; assay type: in vivo; conditions: rat, 40% blood volume hemorrhage, VPA 300 mg/kg IV vs vehicle
Description: as §2
Animals were hemorrhaged 40% of their total blood volume to induce sub-lethal HS, and were sacrificed at 1, 4, and 20 hours following hemorrhage and treatment. This degree of blood loss was selected to allow 100% of animals in all groups to survive until the designated time of sacrifice. Selected laboratory values were measured, and were indicative of moderate HS (mean lactate 0.6 mmol/L at baseline, 4.3 mmol/L after hemorrhage; mean baseline hemoglobin 12.0 g/dL at baseline, 9.6 g/dL after hemorrhage). […]

[9] = tested on: 22.7 kDa serum protein; assay: SELDI-TOF MS serum protein profiling in lethal hemorrhagic shock model; assay type: in vivo; conditions: rat, 60% blood loss, VPA 300 mg/kg via femoral vein, 24 hours after treatment
Description: as §1
ProteinChip profiling was performed on CM10 ProteinChip arrays (Ciphergen Biosystems, Fremont Calif.), as recommended by the manufacturer. […] The arrays were then inserted into a ProteinChip (Enterprise edition) TOF-MS and read at an optimized laser setting of 2000 nJ-5000 nJ. […]

[10] = tested on: CINC-1; assay: Lung tissue CINC-1 ELISA, sub-lethal hemorrhagic shock; assay type: in vivo; conditions: rat, 40% blood volume hemorrhage, VPA 300 mg/kg IV vs vehicle, 20 hour time point, p=0.17
Description: as §2, §3
ELISA was used to measure CINC-1 levels in lung whole tissue extract (n=3-4/time point/group).

[11] = tested on: claudin-3; assay: Western blot of intestinal claudin-3 protein after hemorrhagic shock; assay type: in vivo; conditions: rat intestine, 1, 6, and 24 hours after VPA treatment
Description: as §1, with “experiment.” for “experiment. The mean arterial pressure (MAP) in animals that were subjected to hemorrhage dropped sharply after bleeding to approximately 20 mm Hg.”
Claudin-3 is a TJ protein that has important roles in establishing epithelial and endothelial barriers. To find out whether HS and VPA treatment affect claudin-3 protein in TJ of epithelial cells, protein expression was analyzed in intestinal tissue obtained from sham, HS 1 hour (1 hour after hemorrhagic shock), and VPA-treated animals (1 hour, 6 hours, and 24 hours after treatment). […]

[12] = tested on: acute lung injury; assay: Acute lung injury (ALI) following hemorrhagic shock; assay type: in vivo; conditions: rat, 40% blood volume hemorrhage, VPA 300 mg/kg
[13] = tested on: claudin-3; assay: iTRAQ quantification of claudin-3 peptide in serum after hemorrhagic shock; assay type: in vivo; conditions: rat serum, 24 hours post-VPA 300 mg/kg; BL to HS ratio 0.323
Description: as §1
Immunodepletion of serum abundant proteins was performed as follows. […] Column performance was monitored by sodium dodecyl sulphate-polyacrylamide gel electrophoresis (SDS-PAGE) followed by Coomassie Blue staining (BioBlue, BioRad). […]

CCCC(CCC)C(=O)O [VPA, Valproic acid]
survival after lethal HS [1]: improves survival | survival after hemorrhagic shock [2]: significantly improved survival; also recorded: survived | intestinal claudin-3 mRNA expression [3]: did not significantly change | HS-induced increase of circulating CINC-1 (ELISA) [4]: significantly attenuated this effect | serum claudin-3 by Western blot [5]: no claudin-3 was detected | lung CINC-1 mRNA levels [6]: no significant changes between groups | HS-induced increase of lung MPO levels [7]: significantly attenuated this effect | HS-induced rise of serum CINC-1 (multiplex electrochemiluminescence assay) [8]: appeared to be attenuated | serum level of 22.7 kDa protein (SELDI-TOF MS) versus HS [9]: down-regulated | effects on lung CINC-1 levels [10]: not statistically significant | intestinal claudin-3 protein level by Western blot [11]: significantly attenuated the HS-induced reduction of claudin-3 | development of ALI after hemorrhage [12]: inhibited and reduced | ratio of VPA to HS, claudin-3 peptide isobaric tag signal in serum [13]: 0.425
